Publication PMC6934184, “Selective DNA-PKcs inhibition extends the therapeutic index of localized radiotherapy and chemotherapy” (The Journal of Clinical Investigation, 2019)

Target: T1, FRK (PTK5) (Homo sapiens, UniProt P42685)
T1 construct: purchased Thermo Fisher Scientific (Life Technologies) SelectScreen
Assay: SelectScreen Z'LYTE
Assay type: biochemical
How it was run: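 Compound tested in SelectScreen activity assays, Z'LYTE for CSF1R, CDK1/cyclin B and MAP2K6 and Adapta for CAMK1. ATP for CAMK1 was listed as 10, and Km app was used for CSF1R. Results are expressed in percent.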

T1 sequence (P42685 whole entry): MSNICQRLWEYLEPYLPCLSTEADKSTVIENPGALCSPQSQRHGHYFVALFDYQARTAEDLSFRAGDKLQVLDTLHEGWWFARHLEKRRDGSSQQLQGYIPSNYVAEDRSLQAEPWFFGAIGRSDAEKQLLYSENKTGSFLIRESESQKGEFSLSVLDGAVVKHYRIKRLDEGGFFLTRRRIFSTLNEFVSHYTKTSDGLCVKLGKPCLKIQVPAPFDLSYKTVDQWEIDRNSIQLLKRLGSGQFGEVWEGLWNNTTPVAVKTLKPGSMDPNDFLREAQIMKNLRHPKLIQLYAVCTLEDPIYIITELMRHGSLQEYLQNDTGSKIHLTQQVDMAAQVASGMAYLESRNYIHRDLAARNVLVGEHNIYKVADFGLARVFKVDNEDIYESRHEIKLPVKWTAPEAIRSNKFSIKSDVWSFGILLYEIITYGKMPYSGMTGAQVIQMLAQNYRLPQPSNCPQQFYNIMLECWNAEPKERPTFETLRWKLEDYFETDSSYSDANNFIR

Question: With `CN(C(=O)CN1CCOCC1)c1ccc2sc3c(-c4cccc5c(=O)cc(N6CC7CCC(C6)O7)oc45)cccc3c2c1` [NU5455] as the compound, how does the inhibition at 1 µM read?
Answer: Its inhibition at 1 µM is 3.4%.
